Consider four compounds from US11793823B2, “Compounds and pharmaceutical uses thereof” (SyneuRx International (Taiwan) Corp., priority 2020, dated 2023).

Where two headings read alike, the source gives them in different places.

Experiment [1] has as its target human D-amino acid oxidase (hDAAO) (Homo sapiens (Human), UniProt P14920). Nature of the experiment: In vitro human D-amino acid oxidase (hDAAO) activity, D-Serine/Amplex Red fluorescence. Format: biochemical. To be noted: D-Serine substrate, 20 min. In outline: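 Recombinant hDAAO activity with D-serine as substrate; H2O2 was coupled via HRP to Amplex Red and fluorescence read at ex 530/em 590 nm at 0 and 20 min, dark, room temperature, Tris pH 8.5 with FAD. Inhibition came from the 20–0 min signal change relative to DMSO, and IC50 from nonlinear fits of 3-fold dilutions run in triplicate.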

Experiment [2] deals with MK-801 treated mice. Description: Open field test, MK-801 induced hyper-locomotion. To be noted: for relief of MK801-induced hyperactivity: MK-801 0.2 mg/kg i.p., open field. Format: in vivo. As for the experimental part:
(§1) C57BL/6J male mice were group housed (3-5 mice per cage) with food and water available ad libitum in polysulfone ventilated cages (Alternative Design, AR, USA) in the animal room of SyneuRx. The colony was maintained on a 12/12-h light/dark cycle at the temperature of 22±2° C. and all behavioral studies were performed during the dark cycle. All animals used in this study were adult mice (at least 2.5 months of age). All animal procedures were performed according to the protocols approved by Institutional Animal Care and Use Committee (IACUC).
(§2) The mice were randomly assigned into five groups for open field test, Group 1: vehicle control, Group 2: MK-801, Group 3: Compound 66 at 10 mg/kg+MK-801, Group 4: Compound 66 at 30 mg/kg+MK-801, Group 5: Compound 66 at 100 mg/kg+MK-801. Mice at Group 2-5 received an acute administration of MK-801 (Sigma-Aldrich USA), a NMDA receptor antagonist, dissolved in normal saline, at 0.2 mg/kg for open field. For pre-pulse inhibition (PPI) test, animal was randomly assigned for four groups, Group 1: vehicle control, Group 2: MK-801, Group 3: Compound 66 at 3 mg/kg+MK-801, Group 4: Compound 66 at 10 mg/kg. Group 2-4 was received 0.3 mg/kg, MK-801. MK-801 was administrated by i.p. injection 20 minutes prior to open field and PPI tests. Test article, compound 66 (dissolved in ddH2O with 65% PEG400 and 10% DMSO), was orally treated 20 minutes prior to the MK-801 administration.
The open field task is a common measurement of novelty induced exploratory behavior and general activity in both mice and rats. The objective of this experiment was to evaluate the efficacy of compound 66 on attenuating the MK-801 induced hyper-locomotion. In this study, the mice were placed in a Plexiglas cage (37.5 cm×21.5 cm×18 cm) under 50-65 lux light intensity. Their spontaneous locomotor activities were measured for 60 minutes using the Photobeam Activity System (PAS)-open field (San Diego Instruments, San Diego, CA, USA). The total number of photo beam breaks of each mouse was measured as an index of locomotion activity.
as §2, with “74” for “66”, “field test.” for “field.”
All mice were tested with open field and pre-pulse inhibition tasks. The open field and pre-pulse inhibition tasks were used to evaluate the efficacy of the compound 74 on attenuating the MK-801 induced hyper-locomotion and deficit of sensorimotor gating function in mice, respectively. The apparatus and recording method of open field and pre-pulse inhibition task were as described above in Example 45.
Mice at Group 2-5 received an acute administration of MK-801 (Sigma-Aldrich USA), a NMDA receptor antagonist, dissolved in normal saline, at 0.2 mg/kg for open field test. […] Group […] was received 0.3 mg/kg, MK-801. MK-801 was administrated by i.p. injection 20 minutes prior to open field and PPI tests.
The open field task is a common measurement of novelty induced exploratory behavior and general activity in both mice and rats. […] In this study, the mice were placed in a Plexiglas cage (37.5 cm×21.5 cm×18 cm) under 50-65 lux light intensity. […]

Experiment [3] deals with MK-801 treated mice. Nature of the experiment: Pre-pulse inhibition (PPI) test, MK-801 induced deficit of sensorimotor gating. In kind it is in vivo. To be noted: MK-801 0.3 mg/kg i.p. The protocol: as §1, §2
Pre-pulse inhibition, using SR-LAB startle apparatus (San Diego Instruments, San Diego, CA, USA), was used to determine the efficacy of compound 66 on attenuating the MK-801 induced deficit of sensorimotor gating function in mice. Under 65 dB background noise, each session was composed of a 5-minute accumulation period followed by 64 trials in four blocks. The pulse alone (PA) trial was a 40 ms, 120 dB white noise burst. In the prepulse (pp)+pulse trials, a 20 ms white noise prepulse stimuli of 71 dB (pp6), 75 dB (pp10), and 83 dB (pp18) were presented 100 ms before a 40 ms 120 dB pulse. The non-stimulus (NS) trials presented the background noise only. The initial and the last blocks were composed of six PA trials, respectively. Two middle blocks consisted of PA, pp+pulse, and NS trials. These trials were presented pseudo-randomly and separated by intertribal intervals of 15 seconds on average (varying between 10 to 20 s). The percentage of prepulse inhibition was evaluated by the following formula: % PPI=100×[(PA score)−(pp-P score)]/(PA score), where the PA score was the average of the PA value in the middle blocks.
as §2, with “74” for “66”, “field test.” for “field.”
All mice were tested with open field and pre-pulse inhibition tasks. The open field and pre-pulse inhibition tasks were used to evaluate the efficacy of the compound 74 on attenuating the MK-801 induced hyper-locomotion and deficit of sensorimotor gating function in mice, respectively. The apparatus and recording method of open field and pre-pulse inhibition task were as described above in Example 45. […]

Another experiment concerns the target SARS-CoV-2 3CLPro (Severe acute respiratory syndrome coronavirus 2 (2019-nCoV) (SARS-CoV-2), UniProt P0DTD1). Nature of the experiment: biochemical. The conditions noted are these: final DMSO concentration 2%.
[4] abbreviates: 75 dB and 83 dB pre-pulse, 3 mg/kg oral.
[5] abbreviates: 75 dB and 83 dB pre-pulse, 10 mg/kg oral.

human D-amino acid oxidase (hDAAO), sequence (P14920 whole entry): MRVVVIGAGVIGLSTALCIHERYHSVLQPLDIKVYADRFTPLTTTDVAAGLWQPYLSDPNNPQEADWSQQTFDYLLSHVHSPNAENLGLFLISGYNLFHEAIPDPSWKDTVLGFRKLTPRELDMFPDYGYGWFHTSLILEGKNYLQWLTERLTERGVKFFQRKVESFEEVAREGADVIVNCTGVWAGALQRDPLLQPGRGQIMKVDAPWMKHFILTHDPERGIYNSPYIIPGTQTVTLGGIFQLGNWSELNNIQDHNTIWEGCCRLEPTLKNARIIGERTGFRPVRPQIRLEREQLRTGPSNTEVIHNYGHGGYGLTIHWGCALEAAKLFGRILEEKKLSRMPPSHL

With `O=C(O)c1cc(O)c(O)c(OC(=O)c2cc(O)c(O)c(OC(=O)c3cc(O)c(O)c(OC(=O)c4cc(O)c(O)c(OC(=O)c5cc(O)c(O)c(OC(=O)c6cc(CCc7ccc(C(F)(F)F)cc7)n[nH]6)c5)c4)c3)c2)c1` [Compound 66, 3-((3-((3-((3-((3,4-dihydroxy-5-((3-(4-(trifluoromethyl)phenethyl)-1H-pyrazole-5-carbonyl)oxy)benzoyl)oxy)-4,5-dihydroxybenzoyl)oxy)-4,5-dihydroxybenzoyl)oxy)-4,5-dihydroxybenzoyl)oxy)-4,5-dihydroxybenzoic acid], the IC50 in experiment [1] was determined as 25 nM. In addition, in the experiment with MK-801 treated mice [2] (10, 30 and 100 mg/kg oral, dose-dependent), the “effect on MK-801 induced hyper-locomotion vs MK-801 group” value is listed as “significantly reduced”. The “relief of MK801-induced hyperactivity” value in the experiment on MK-801 treated mice [2] (high dose 100 mg/kg oral) is recorded as 67%. For the same compound, the “effect on pre-pulse inhibition vs MK-801 group” value in the experiment with MK-801 treated mice [3] (71 dB pre-pulse, 10 mg/kg oral) is on record as “relieve PPI deficit to basal level”; in the experiment on MK-801 treated mice [3] (setting [4]), “marginal improvement”; in the experiment on MK-801 treated mice [3] (setting [5]) it was “significantly higher percentage of pre-pulse inhibition”.
In experiment [1], `O=C(OC[C@H]1O[C@H](OC(=O)c2cc(O)c(O)c(OC(=O)c3cc(O)c(O)c(OC(=O)c4cc(O)c(O)c(OC(=O)c5cc(O)c(O)c(O)c5)c4)c3)c2)[C@H](OC(=O)c2cc(O)c(O)c(OC(=O)c3cc(O)c(O)c(OC(=O)c4cc(O)c(O)c(OC(=O)c5cc(O)c(O)c(O)c5)c4)c3)c2)[C@@H]1OC(=O)c1cc(O)c(O)c(OC(=O)c2cc(O)c(O)c(OC(=O)c3cc(O)c(O)c(OC(=O)c4cc(O)c(O)c(O)c4)c3)c2)c1)c1cc(O)c(O)c(OC(=O)c2cc(O)c(O)c(OC(=O)c3cc(O)c(O)c(OC(=O)c4cc(O)c(O)c(O)c4)c3)c2)c1` [Compound 138, (2R,3R,4R,5R)-5-(((3-((3-((3,4-dihydroxy-5-((3,4,5-trihydroxybenzoyl)oxy)benzoyl)oxy)-4,5-dihydroxybenzoyl)oxy)-4,5-dihydroxybenzoyl)oxy)methyl)tetrahydrofuran-2,3,4-triyl tris(3-((3-((3,4-dihydroxy-5-((3,4,5-trihydroxybenzoyl)oxy)benzoyl)oxy)-4,5-dihydroxybenzoyl)oxy)-4,5-dihydroxybenzoate)] showed an IC50 of 4 nM. Moreover, in the experiment with MK-801 treated mice [2] (3, 10 and 30 mg/kg oral, dose-dependent), the “effect on MK-801 induced hyper-locomotion vs MK-801 group” value is “significantly reduced”. In addition, the “relief of MK801-induced hyperactivity” value in the experiment on MK-801 treated mice [2] (high dose 30 mg/kg oral) was found to be 43%. For the same compound, the “effect on pre-pulse inhibition vs MK-801 group” value with MK-801 treated mice [3] (setting [4]) is “relieve PPI deficit”.
Consider `O=C(O)c1cc(O)c(O)c(OC(=O)c2cc(O)c(O)c(OC(=O)c3cc(O)c(O)c(OC(=O)c4cc(O)c(O)c(OC(=O)c5cc(O)c(O)c(OC(=O)c6cc(CCc7ccccc7C(F)(F)F)n[nH]6)c5)c4)c3)c2)c1` [Compound 74, 3-((3-((3-((3-((3,4-dihydroxy-5-((3-(2-(trifluoromethyl)phenethyl)-1H-pyrazole-5-carbonyl)oxy)benzoyl)oxy)-4,5-dihydroxybenzoyl)oxy)-4,5-dihydroxybenzoyl)oxy)-4,5-dihydroxybenzoyl)oxy)-4,5-dihydroxybenzoic acid], for which the IC50 was 31 nM in experiment [1], > 31200 nM at SARS-CoV-2 3CLPro (read-out: IC50) and > 31200 nM at SARS-CoV-2 3CLPro (read-out: IC50 (μg/mL) (converted)). Also, the “effect on MK-801 induced hyper-locomotion vs MK-801 group” value with MK-801 treated mice [2] (30 mg/kg and 100 mg/kg oral) is listed as “significantly reduced”; in the experiment with MK-801 treated mice [2] (low dose 10 mg/kg oral), “marginally lower locomotion activity”. The “relief of MK801-induced hyperactivity” value in the experiment on MK-801 treated mice [2] (middle (30 mg/kg) and high dose (100 mg/kg) oral as worded) was found to be 69%. Moreover, the “effect on pre-pulse inhibition vs MK-801 group” value in the experiment on MK-801 treated mice [3] (setting [5]) was “significantly improved PPI”.
With `O=C(Oc1cc(C(=O)Oc2cc(C(=O)Oc3cc(C(=O)O[C@H]4OC[C@@H](OC(=O)c5cc(O)c(O)c(OC(=O)c6cc(O)c(O)c(OC(=O)c7cc(O)c(O)c(OC(=O)c8cc(O)c(O)c(O)c8)c7)c6)c5)[C@H](OC(=O)c5cc(O)c(O)c(OC(=O)c6cc(O)c(O)c(OC(=O)c7cc(O)c(O)c(OC(=O)c8cc(O)c(O)c(O)c8)c7)c6)c5)[C@H]4OC(=O)c4cc(O)c(O)c(OC(=O)c5cc(O)c(O)c(OC(=O)c6cc(O)c(O)c(OC(=O)c7cc(O)c(O)c(O)c7)c6)c5)c4)cc(O)c3O)cc(O)c2O)cc(O)c1O)c1cc(O)c(O)c(O)c1` [Compound 121, (2R,3R,4S,5R)-tetrahydro-2H-pyran-2,3,4,5-tetrayl tetrakis(3-((3-((3,4-dihydroxy-5-((3,4,5-trihydroxybenzoyl)oxy)benzoyl)oxy)-4,5-dihydroxybenzoyl)oxy)-4,5-dihydroxybenzoate)], the IC50 in experiment [1] amounted to 2.5 nM. Moreover, the “effect on MK-801 induced hyper-locomotion vs MK-801 group” value in the experiment on MK-801 treated mice [2] (3 mg/kg and 10 mg/kg oral) is “marginally lower locomotion activity”. In the experiment on MK-801 treated mice [2] (high dose 30 mg/kg oral), the “effect on MK-801 induced hyper-locomotion vs MK-801 group” value is “significantly reduced” and the “relief of MK801-induced hyperactivity” value was found to be 48%. In addition, the “effect on pre-pulse inhibition vs MK-801 group” value in the experiment on MK-801 treated mice [3] (75 and 83 dB pre-pulse, all tested doses 3, 10 and 30 mg/kg oral) is reported as “higher potency”.
